# Data taken from paper PMC11941218, “Juglone-Bearing Thiopyrano[2,3-d]thiazoles Induce Apoptosis in Colorectal Adenocarcinoma Cells” (Cells, 2025).
# What was measured:
# [1] = system: Balb/c 3T3 (mouse fibroblasts); experiment: MTT assay; type: cell-based; conditions: BALB/c3T3, Balb/c 3T3, MTT, 72 h, M ± SD, n = 3
# Method: (§1) DLD-1, HaCaT, and Balb/c 3T3 cells were maintained in DMEM, while HT-29 cells were grown in McCoy’s 5A medium with 10% FBS and 1% penicillin/streptomycin. All cell lines were incubated at 37 °C in a humidified atmosphere with 5% CO2. After detaching the cells with trypsin, they were quantified using a Scepter 3.0 automated cell counter (Millipore, Burlington, MA, USA).
# (§2) The metabolic activity of cells exposed to the tested derivatives, doxorubicin, and DMSO, was assessed using an MTT assay according to the manufacturer’s protocol (Sigma-Aldrich, St. Louis, MO, USA). Adherent cells were seeded into 96-well plates (5000–10,000 cells in 100 µL of growth medium per well) and allowed to adhere overnight before treatment. For lymphocytes, activation with phytohemagglutinin-L (1 µg/mL) was performed for 24 h, after which they were seeded in 96-well plates at a density of 100,000 cells/well in RPMI-1640 medium supplemented with 20% FBS. The test substances, including Les-6547, Les-6557, and doxorubicin, were added to 100 µL of culture medium to achieve final concentrations of 0 µM, 0.1 µM, 1 µM, 2.5 µM, 10 µM, and 100 µM for all compounds, and the cells were further incubated for 24, 48, or 72 h. DMSO-treated cells served as the control. Then, 20 µL of MTT solution (5 mg/mL) was added and incubated for 2–4 h to allow formazan crystal formation. The formazan crystals were then solubilized by adding DMSO. The absorbance of formazan was measured at 570 nm using a ThermoScientific Evolution 201 UV-VIS spectrophotometer (ThermoFisher Scientific, Waltham, MA, USA). The control condition with 0.5% DMSO was considered 100% viability. The IC50 values for the compounds were determined using GraphPad Prism 8 and 9 software (GraphPad Software, Boston, MA, USA).
# [2] = system: DLD-1 colorectal adenocarcinoma cells; experiment: MTT assay; type: cell-based, human; conditions: for IC50: Homo sapiens
# Method: as §1, §2
# Human blood lymphocytes = experiment: MTT assay; type: cell-based; conditions: for IC50: Lymphocyte, human blood lymphocytes, 72 h, M ± SD, n = 3; for decrease of viability compared to control cells: lymphocytes from a healthy donor, 100 µM
# Method: Lymphocytes from human peripheral blood were isolated with sodium heparin (10 U/mL) as an anticoagulant. Isolation was performed through a density gradient method with the Gradisol G, following a modified procedure. Peripheral blood was mixed with Gradisol G in equal proportions (1:1) and centrifuged at 400× g for 30 min at room temperature. The cells were collected, washed in phosphate-buffered saline (PBS), and treated with a hypotonic solution to remove residual erythrocytes. Lymphocytes were activated by phytohemagglutinin-L (1 µg/mL) and cultured in RPMI-1640 medium supplemented with 20% fetal bovine serum under controlled conditions of 95% air and 5% CO2 [27].
# as §2
# [3] = system: DLD-1 colorectal adenocarcinoma cells; experiment: Colony forming (clonogenic) assay; type: cell-based, human; conditions: for inhibition of colony formation: DLD-1, 2.5 µM; for inhibition at 1 µM / IC50: Homo sapiens; for inhibition at 1 µM: DLD-1, 1 µM, read-out: inhibition of colony formation; for IC50: DLD-1, 72 h treatment, 14 days of incubation, M ± SD, n = 3
# Method: (§3) For colony forming assay, HT-29 and DLD-1 cells were seeded in 12-well plates at a density of 500 cells in 2 mL of growth medium per well. After overnight incubation, the cells were exposed to the compounds Les-6547, Les-6557, and doxorubicin at concentrations ranging from 0.1 to 100 µM for 72 h. Following treatment, the medium was replaced with fresh medium without the compounds. After 14 days of culture, cells were rinsed with PBS and fixed with cold methanol for 10 min. Subsequently, the cells were stained with a 0.1% crystal violet solution for 10 min. After washing, the plates were allowed to dry at room temperature. Numbers of colonies were quantified using ImageJ software (version 1.5.4; National Institutes of Health, Bethesda, MD, USA). The effect of the compounds on the colony-forming capacity was calculated as a percentage of colonies relative to the untreated control group.
# [4] = system: HT-29 colorectal adenocarcinoma cells; experiment: Colony forming (clonogenic) assay; type: cell-based, human; conditions: for inhibition of colony formation: HT-29, 2.5 µM; for inhibition at 1 µM / IC50: Homo sapiens; for inhibition at 1 µM: HT-29, 1 µM, read-out: inhibition of colony formation; for IC50: HT-29, 72 h treatment, 14 days of incubation, n = 3
# Method: as §3
# [5] = system: HT-29 colorectal adenocarcinoma cells; experiment: Mitochondrial membrane potential assay (JC-1, flow cytometry); type: cell-based, human; conditions: HT-29, JC-1, 24 h; Les-6547 5 μM, Les-6557 10 μM
# Method: The disruption of mitochondrial membrane potential (MMP) was assessed using the JC-1 MitoScreen kit and a BD FACSCanto II flow cytometer, following the instructions provided and previously described protocols.
# HT-29 cells were exposed to Les-6547 (5 µM) and Les-6557 (10 µM) for 24 h. After the treatment, the cells were washed and resuspended in 0.5 mL of buffer containing 10 μg/mL JC-1, followed by incubation for 15 min at room temperature, shielded from light.
# Then, the cells were washed twice with buffer, resuspended in 300 μL of PBS, and analyzed for mitochondrial membrane potential disruption.
# caspase 10 = experiment: Caspase 10 activity assay (FAM-FLICA, flow cytometry) in HT-29 cells; type: cell-based, human; conditions: HT-29, 24 h; Les-6547 5 μM, Les-6557 10 μM
# Method: Caspase activity for initiator caspases (8, 9, and 10) and executioner caspases (3/7) was evaluated using a FAM-FLICA® Caspase Assay kit (ImmunoChemistry Technologies, Bloomington, MN, USA) according to the manufacturer’s instructions, as described in previous studies. HT-29 cells were exposed to Les-6547 (5 µM) and Les-6557 (10 µM) for 24 h. Following this, the cells were harvested, washed twice with cold PBS, and resuspended in Apoptosis Wash Buffer (ImmunoChemistry Technologies, Bloomington, MN, USA) at a final concentration of 5 × 10^5 cells/mL.
# Subsequently, 290 µL of the cell suspension was transferred into individual tubes, to which 10 µL of freshly prepared FLICA solution (1:5 dilution in PBS) was added. The mixture was gently pipetted and incubated for 1 h at 37 °C in the dark. After the incubation, the cells were washed twice with 2 mL of Apoptosis Wash Buffer, centrifuged, and resuspended in 300 µL of the same buffer. The prepared samples were immediately analyzed using a BD FACSCanto II flow cytometer (10,000 events). Data were processed using FACSDiva 6.1.3 software (BD Biosciences Systems, San Jose, CA, USA). Flow cytometer calibration was conducted using a BD Cytometer Setup and Tracking Beads (BD Biosciences, San Diego, CA, USA).
# [6] = DLD-1, MTT, 24, 48 and 72 h, read-out: IC50 (range over incubation times)
# [7] = DLD-1, MTT, 24 h, M ± SD, n = 3, read-out: IC50
# [8] = DLD-1, MTT, 48 h, M ± SD, n = 3, read-out: IC50
# [9] = DLD-1, MTT, 72 h, M ± SD, n = 3, read-out: IC50
SMILES,IC50 [1] [µM],"IC50 [2, 6] [µM]","IC50 [2, 7] [µM]","IC50 [2, 8] [µM]","IC50 [2, 9] [µM]",IC50 (Human blood lymphocytes) [µM],decrease of viability compared to control cells (Human blood lymphocytes) [%],inhibition of colony formation [3],inhibition at 1 µM [3] [%],IC50 [3] [µM],inhibition of colony formation [4],inhibition at 1 µM [4] [%],IC50 [4] [µM],Cells with decreased ΔΨm [5] [%],Cells with normal ΔΨm [5] [%],"inhibition of viability, times more effective than Les-6547 ([2]; DLD-1, MTT, 48 h, versus Les-6547) [times]",Cells with active caspase 10 (caspase 10) [%]
O=C1C2=C(C(=O)c3c(O)cccc31)C(c1cc(Cl)ccc1O)c1sc(=O)[nH]c1S2 (centres unmarked) [Les-6547],31.7 ± 0.41,5.14 to 6.62,5.14 ± 0.81,5.17 ± 0.58,6.62 ± 0.07,> 100,25,completely inhibited colony formation,99,0.4 ± 0.06,completely inhibited colony formation,100,~0.5,30.8,70.4,,
O=C1C2=C(C(=O)c3c(O)cccc31)C(c1ccc(Cl)cc1)c1sc(=O)[nH]c1S2 (centres unmarked) [Les-6557],40.26 ± 0.35,1.94 to 16.9,16.9 ± 3.32,1.94 ± 0.05,5.19 ± 1.14,> 100,25,completely inhibited colony formation,99,0.33 ± 0.05,completely inhibited colony formation,100,~0.5,32.9,68.5,2.5,40.9
